Data reported in patent US10174015B2, “Substituted heterocyclic derivative, preparation method and use thereof” (Xiamen University, priority 2014, dated 2019).
Where two headings read alike, the source gives them in different places. Marks after values point to notes of the source that are not given here.

What was measured:
[1] = tested on: adjuvant-induced arthritis rat models; assay: Adjuvant-induced osteoarthritis pain, foot swelling degree; type: in vivo, rats; settings: X ± S, n = 10, 10 mg/Kg
Procedure: Typical model for studying inflammatory pain medically was used to evaluate the therapeutic effects of compounds on inflammatory pain. 0.1 mL Freund's complete adjuvant was intradermally injected to toe of the left hind foot of the rats in each group to obtain adjuvant-induced arthritis rat models. Foot volume method was used to measure primary and secondary foot swelling degree (swelling degree=volume after inflammation−volume before inflammation), and polyarticular arthritis were scored (5 scoring grades: 0 represents no red swelling; 4 represents red swelling at all the paws including anklebone. The scores are accumulated according to the lesion degree of the rest three limbs not injected with adjuvant, and the highest score is 12). Before inflammation and at 6 h, 12 h, 18 h and 24 h after inflammation, Paw Volume Meter was used to measure the foot volume at the inflammatory side, and the swelling degree was calculated. The model can represent inflammatory pain including, but not only limited to: osteoarthritis pain and fibromyalgia syndrome, inflammatory pain of rheumatic and rheumatoid arthritis, inflammatory pain of endometriosis, inflammatory toothache, ankylosing spondylitis pain, and gouty arthritis pain.

[2] = tested on: SNI neuropathic pain; assay: Neuropathic pain mouse model induced by spared nerve injury (SNI); type: in vivo, C57BL/6 mice; settings: SNI mice, 10 mg/kg i.p. (gabapentin 100 mg/kg), 4 h after administration
Procedure: In the Experimental example, compounds to be evaluated or compounds to be tested or test compounds used are the Compounds 1-46 prepared in the Examples according to the invention. In the Experimental example, all the agents for injection, including compounds to be evaluated or compounds to be tested or test compounds, and positive control drug, were dissolved in a mixed solvent of PEG400:Tween 80:normal saline (at a volume ratio of 5:5:90), at a concentration of 5 mg/mL.
Neuropathic pain mouse model induced by spared nerve injury (SNI) is a common animal model for studying neuropathic pain medically. The invention uses the model to evaluate the therapeutic effects of the compounds on neuropathic pain, wherein the model can represent peripheral neuropathic pain including, but not limited to post-herpetic neuralgia, pain caused by diabetic perineuropathy, neurothlipsis and exudation caused by tumor, lumbar surgery failure syndrome, neuropathic pain caused by lumbar disc protrusion, postpartum neuralgia, trigeminal neuralgia, chemotherapy-induced multiple neuropathic pain, post-radiotherapy plexopathy, and radicular neuralgia.
C57BL/6 mice (purchased from Shanghai SLAC Laboratory Animal Co., Ltd) were anesthetized by intraperitoneal injection with pentobarbital sodium (40 mg/kg), and skin from knee joint to gluteal region was subjected to skin preparation and disinfection. After the mice were fixed, the knee joint part was cut about 1 cm longitudinally with bistoury, and muscle tissues were separated by blunt dissection to expose sciatic nerve. The tibial and common peroneal nerve branches of sciatic nerve stem were cut off carefully, and the cut was then stitched up. The mice was placed in a clean observation cage. In the sham-operation group, only sciatic nerve was exposed without cutting the tibial and common peroneal nerve branches. From the day before the experiment to 24 h after the operation, the plantar edges of the mice were stimulated everyday by […] (Ugo Basile Company (Italy), Product ID: 37450), and data was collected automatically to obtain the threshold value of mice to mechanical stimulation. […] The positive control drug gabapentin was administered at a dose of 100 mg/kg. All the agents to be injected were dissolved in a mixed solvent of PEG400:Tween 80:normal saline (at a volume ratio of 5:5:90), at a concentration of 5 mg/mL. By comparing the threshold values (the acting force of when the mouse retracting the paw) at different administration time in different administration groups, the compound was evaluated for its analgesic effect on neuropathic pain.

[3] = tested on: zebrafish embryos; type: in vivo; settings: for Death number (72 h): n = 30; for Body length (72 h) / Hatching number (72 h) / Heartbeat (72 h) / Unhatching number (72 h) / hatching rate: zebrafish, in vivo
Procedure: By the same method described above, zebrafish fertilized eggs were cultured. 7 Groups were set for each test compound, including 5 experimental groups relating to the test compound at different concentrations (solutions containing the test compound at different concentrations were prepared by using zebrafish embryo culture medium, wherein the concentrations were 100 mg/L, 10 mg/L, 1 mg/L, 0.1 mg/L, 0.01 mg/L), 1 solvent control group (DMSO) and 1 blank control group. The fertilized eggs were placed and cultured in a 28.5° C. incubator, a certain humidity was ensured in the culture environment. Culture medium containing a test compound was prepared, and the culture medium was added to a 96-well plate in advance, and each fertilized egg (by reference to the experimental method in OECD No. 212 document, fertilized eggs, which developed normally within 24 h after fertilization, were selected and subjected to exposure. Transparent fish eggs visible to naked eye were normally fertilized, while white fish eggs were dead and discarded. After the selection, the normally fertilized eggs had begun to divide as observed under microscope) was then independently placed in a different well, and cultured in the culture medium containing a test compound at a different concentration. Embryo development status at different stages were observed and photographed with invert microscope, including:
I. Morphological observation: the developmental states of fertilized eggs (yolk being coagulated or not, eye spot, pericardial sac being edematous or not, bloodstream being existing or not, tail development status, and the like) were observed and photographed at 48 h, 72 h, and 96 h;
II. Hatching number and death number were counted at 72 h after fertilization, and hatching rate and mortality were calculated;
III. Body length of the hatched young fishes at 72 h was measured (measured after photographing with invert microscope); […]
(§1) V. Heartbeat of young fishes (times/min) was recorded at 72 h and 96 h after fertilization (Recording method: heartbeat of young fishes could be clearly observed under microscope, and the number of heartbeats was recorded for 30 s).

[4] = tested on: zebrafish embryos; type: in vivo; settings: for Death number (72 h) / Hatching number (72 h) / Unhatching number (72 h): n = 30
Procedure: Fertilized eggs (donated by Zebrafish Research Group, School of Life Sciences, Xiamen University) were incubated in freshly prepared zebrafish embryo culture medium, which was replaced by fresh culture medium every day, and cultured in 28.5° C. incubator. Pure water was placed in the incubator to ensure a certain humidity in the culture environment. The formulation for zebrafish embryo culture medium was following: 5 mM NaCl, 0.17 mM KCl, 0.33 mM CaCl2, 0.33 mM MgSO4, 10-5% methylene blue. The culture medium was prepared with pure water. For example, NaCl: 292.2 mg, KCl: 12.68 mg, CaCl2: 36.63 mg, MgSO4: 39.72 mg, and methylene blue: 0.1 μL were needed for the preparation of 1 L culture medium.
7 Groups were set for each test compound, including 5 experimental groups relating to the test compound at different concentrations (solutions containing the test compound at different concentrations were prepared by using zebrafish embryo culture medium, wherein the concentrations were 10 mg/L, 3 mg/L, 1 mg/L, 0.3 mg/L, 0.1 mg/L), 1 solvent control group (DMSO) and 1 blank control group. The positive control drug was OTC analgesic ibuprofen at concentrations as described above. A 96-well cell culture plate was used to perform the experiment, three wells in parallel were used for each experimental group, and 10 fish eggs were contained in each well.
Culture medium containing a test compound was prepared, and the culture medium was added to a 96-well plate in advance, and each fertilized egg (by reference to the experimental method in OECD No. 212 document, fertilized eggs, which developed normally within 2 h after fertilization, were selected and subjected to exposure. Transparent fish eggs visible to naked eye were normally fertilized, while white fish eggs were dead and discarded. After the selection, the normally fertilized eggs had begun to divide as observed under microscope) was then independently placed in a different well, and cultured in the culture medium containing a test compound at a different concentration. Embryo development status at different stages was observed and photographed with invert microscope, including: […]
II. Hatching number and death number were counted at 72 h after fertilization, and hatching rate and mortality were calculated; […]
as §1

What does the source list for `O=C(Cc1cccc(-c2ccccc2)c1)N1CCOC1=O` [Compound 14, 3-Biphenylacetyl Oxazolidinone]?
Foot swelling degree after inflammation ([1]; 6 h): 0.75 ± 0.11^c mL; Foot swelling degree after inflammation ([1]; 12 h): 1.06 ± 0.19^c mL; Foot swelling degree after inflammation ([1]; 18 h): 1.43 ± 0.25^b mL; Foot swelling degree after inflammation ([1]; 24 h): 1.36 ± 0.18^b mL

Which results are given for `COc1ccc2c(c1)c(CC(=O)O)c(C)n2C(=O)c1ccc(Cl)cc1` [indometacin, reference compound]?
Foot swelling degree after inflammation ([1]; 6 h): 0.57 ± 0.16^c mL; Foot swelling degree after inflammation ([1]; 12 h): 0.96 ± 0.21^c mL; Foot swelling degree after inflammation ([1]; 18 h): 1.32 ± 0.22^b mL; Foot swelling degree after inflammation ([1]; 24 h): 1.08 ± 0.26^c mL

For `NCC1(CC(=O)O)CCCCC1` [gabapentin, reference compound], which “effect of inhibiting central neuropathic pain” value [2] is on record?
The value was “disappeared gradually”.

How did the “Death number (72 h)” value ([3]; 0.01 mg/L) turn out when `CC(C)Cc1ccc(C(C)C(=O)O)cc1` (centres unmarked) [ibuprofen, reference compound] was run?
The value was 0.

And the “Death number (72 h)” value ([3]; 0.1 mg/L)?
The value was 0.

What about the “Death number (72 h)” value ([3]; 1 mg/L) of the same compound?
Its value is 2.

And the mortality ([3]; 10 mg/L, 72 h)?
Its mortality is 100%.

And the “Death number (72 h)” value ([3]; 10 mg/L)?
Its value is 30.

And the “observation of zebrafish embryo development” value ([3]; 100 mg/L, 48 h)?
Its value is “all the zebrafish embryos died”.

And the “Death number (72 h)” value ([3]; 100 mg/L)?
Its value is 30.

And the “Body length (72 h)” value ([3]; 72 h, 0.01 mg/L)?
Its value is 3.97 ± 0.06 mm.

What about the “Hatching number (72 h)” value ([3]; 72 h, 0.01 mg/L) of the same compound?
Its value is 25.

What about the “Heartbeat (72 h)” value ([3]; 72 h, 0.01 mg/L) of the same compound?
Its value is 125 ± 2.16 per min.

What about the “Unhatching number (72 h)” value ([3]; 72 h, 0.01 mg/L) of the same compound?
The value was 5.

And the “Body length (72 h)” value ([3]; 72 h, 0.1 mg/L)?
Its value is 3.88 ± 0.15 mm.

And the “Hatching number (72 h)” value ([3]; 72 h, 0.1 mg/L)?
Its value is 22.

And the “Heartbeat (72 h)” value ([3]; 72 h, 0.1 mg/L)?
The value was 124 ± 2.25 per min.

And the “Unhatching number (72 h)” value ([3]; 72 h, 0.1 mg/L)?
The value was 8.

What about the “Body length (72 h)” value ([3]; 72 h, 1 mg/L) of the same compound?
The value was 3.97 ± 0.08 mm.

What about the “Hatching number (72 h)” value ([3]; 72 h, 1 mg/L) of the same compound?
Its value is 17.

What about the “Heartbeat (72 h)” value ([3]; 72 h, 1 mg/L) of the same compound?
The value was 124 ± 1.67 per min.

What about the “Unhatching number (72 h)” value ([3]; 72 h, 1 mg/L) of the same compound?
The value was 11.

What about the hatching rate ([3]; 72 h, 1 mg/L) of the same compound?
Its hatching rate is 56.7%.

And the “Hatching number (72 h)” value ([3]; 72 h, 10 mg/L)?
The value was 0.

What about the “Unhatching number (72 h)” value ([3]; 72 h, 10 mg/L) of the same compound?
Its value is 0.

And the hatching rate ([3]; 72 h, 10 mg/L)?
The hatching rate was 0%.

And the “Hatching number (72 h)” value ([3]; 72 h, 100 mg/L)?
Its value is 0.

What about the “Unhatching number (72 h)” value ([3]; 72 h, 100 mg/L) of the same compound?
The value was 0.

What about the “Body length (72 h)” value ([4]; 0.1 mg/L) of the same compound?
The value was 3.94 ± 0.14 mm.

And the “Heartbeat (72 h)” value ([4]; 0.1 mg/L)?
The value was 125 ± 2.40 per min.

And the “Death number (72 h)” value ([4]; 0.1 mg/L)?
Its value is 8.

And the “Hatching number (72 h)” value ([4]; 0.1 mg/L)?
Its value is 22.

What about the “Unhatching number (72 h)” value ([4]; 0.1 mg/L) of the same compound?
The value was 0.

And the “Body length (72 h)” value ([4]; 0.3 mg/L)?
The value was 3.95 ± 0.09 mm.

What about the “Heartbeat (72 h)” value ([4]; 0.3 mg/L) of the same compound?
The value was 125 ± 2.48 per min.

What about the “Death number (72 h)” value ([4]; 0.3 mg/L) of the same compound?
Its value is 8.

And the “Hatching number (72 h)” value ([4]; 0.3 mg/L)?
Its value is 20.

What about the “Unhatching number (72 h)” value ([4]; 0.3 mg/L) of the same compound?
Its value is 2.

What about the “Body length (72 h)” value ([4]; 1 mg/L) of the same compound?
Its value is 3.77 ± 0.18 mm.

What about the “Heartbeat (72 h)” value ([4]; 1 mg/L) of the same compound?
Its value is 126 ± 2.56 per min.

What about the hatching rate ([4]; 1 mg/L, 72 h) of the same compound?
Its hatching rate is 56.67%.

And the “Death number (72 h)” value ([4]; 1 mg/L)?
The value was 13.

And the “Hatching number (72 h)” value ([4]; 1 mg/L)?
The value was 17.

And the “Unhatching number (72 h)” value ([4]; 1 mg/L)?
Its value is 0.

What about the “Death number (72 h)” value ([4]; 3 mg/L) of the same compound?
Its value is 28.

And the “Hatching number (72 h)” value ([4]; 3 mg/L)?
The value was 0.

And the “Unhatching number (72 h)” value ([4]; 3 mg/L)?
Its value is 2.

And the “Death number (72 h)” value ([4]; 10 mg/L)?
The value was 30.

And the “Hatching number (72 h)” value ([4]; 10 mg/L)?
The value was 0.

What about the “Unhatching number (72 h)” value ([4]; 10 mg/L) of the same compound?
The value was 0.
